# Test results from PMC5924706 (ACS chemical neuroscience, 2017).
# Like-named read-outs stand apart in the source and are kept apart here.
# Key:
# GluN2C/2D over GluN2A/2B = conditions: cited from earlier work
# GluN1/GluN2D receptors = GluN1/GluN2D receptors (Rattus norvegicus, UniProt Q62645); conditions: for agonist pEC50 at GluN1/GluN2D: mean (95% CI); for EC50: read-out: agonist EC50 at GluN1/GluN2D
# [1] = tested on: GluN2C-expressing cultured rat cortical neurons; experiment: Agonist-evoked NMDAR currents in transfected cultured cortical neurons; conditions: 20 μM compound; NMDA and glycine pressure pulses
# [2] = tested on: cultured rat cortical neurons transfected with GFP alone; experiment: as above; conditions: 20 μM compound; NMDA and glycine pressure pulses
# Sequence of GluN1/GluN2D receptors (Q62645 28-1323, other chains not shown): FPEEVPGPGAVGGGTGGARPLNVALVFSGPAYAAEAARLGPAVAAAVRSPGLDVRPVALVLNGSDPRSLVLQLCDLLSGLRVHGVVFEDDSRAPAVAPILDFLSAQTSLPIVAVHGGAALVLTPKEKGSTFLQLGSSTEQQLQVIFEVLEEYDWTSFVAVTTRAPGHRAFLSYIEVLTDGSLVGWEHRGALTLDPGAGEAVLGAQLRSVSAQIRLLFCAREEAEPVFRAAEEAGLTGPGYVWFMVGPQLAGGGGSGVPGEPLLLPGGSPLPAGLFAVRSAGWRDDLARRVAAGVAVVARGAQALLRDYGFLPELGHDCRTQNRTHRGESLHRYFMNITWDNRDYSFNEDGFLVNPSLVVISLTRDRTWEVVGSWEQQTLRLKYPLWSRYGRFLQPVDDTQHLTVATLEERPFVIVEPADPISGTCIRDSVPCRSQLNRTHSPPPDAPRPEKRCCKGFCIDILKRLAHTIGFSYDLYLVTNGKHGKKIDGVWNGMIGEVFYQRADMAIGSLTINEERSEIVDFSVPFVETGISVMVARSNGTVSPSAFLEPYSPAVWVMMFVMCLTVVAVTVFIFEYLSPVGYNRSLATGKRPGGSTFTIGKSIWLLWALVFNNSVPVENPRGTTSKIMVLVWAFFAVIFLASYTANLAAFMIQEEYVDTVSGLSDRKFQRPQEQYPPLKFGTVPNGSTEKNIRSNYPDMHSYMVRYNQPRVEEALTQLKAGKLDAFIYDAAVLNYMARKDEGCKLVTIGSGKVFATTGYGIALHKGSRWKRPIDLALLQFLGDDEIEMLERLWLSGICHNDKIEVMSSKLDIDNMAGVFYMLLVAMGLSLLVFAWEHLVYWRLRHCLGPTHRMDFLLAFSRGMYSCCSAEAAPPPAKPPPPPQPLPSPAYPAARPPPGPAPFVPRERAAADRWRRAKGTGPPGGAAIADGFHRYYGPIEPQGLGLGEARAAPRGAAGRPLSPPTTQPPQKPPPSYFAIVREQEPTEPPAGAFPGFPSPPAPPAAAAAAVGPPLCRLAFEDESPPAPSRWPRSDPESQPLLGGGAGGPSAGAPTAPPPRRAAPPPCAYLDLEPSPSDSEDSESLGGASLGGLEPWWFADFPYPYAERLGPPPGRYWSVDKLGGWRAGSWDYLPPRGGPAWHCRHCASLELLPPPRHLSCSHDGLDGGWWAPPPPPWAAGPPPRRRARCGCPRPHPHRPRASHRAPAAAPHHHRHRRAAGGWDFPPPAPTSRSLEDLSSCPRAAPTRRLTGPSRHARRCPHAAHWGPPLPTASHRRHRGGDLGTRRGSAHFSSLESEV
compound,measurement,setting,value
COc1ccc2nc(/C=C/c3cccc([N+](=O)[O-])c3)n(-c3ccc(C(=O)O)cc3)c(=O)c2c1 [QNZ46],selectivity for GluN2C/2D over GluN2A/2B,GluN2C/2D over GluN2A/2B,up to 50 fold
N[C@@H](CCC(=O)O)C(=O)O [glutamate],agonist pEC50 at GluN1/GluN2D,GluN1/GluN2D receptors; absence of NAB-14,"−6.22 (−6.29, −6.14)"
same,agonist pEC50 at GluN1/GluN2D,GluN1/GluN2D receptors; presence of 3 μM NAB-14,"−6.15 (−6.36, −5.93)"
same,EC50,GluN1/GluN2D receptors; absence of NAB-14,610 nM
same,EC50,GluN1/GluN2D receptors; presence of 3 μM NAB-14,710 nM
Cc1ccc2[nH]c(=O)c(C3=NN(C(=O)CCC(=O)O)C(c4ccc(Br)cc4)C3)c(-c3ccccc3)c2c1 (centres unmarked) [DQP-1105],selectivity for GluN2C/2D over GluN2A/2B,GluN2C/2D over GluN2A/2B,up to 50 fold
COc1ccc(OCC2c3cc(OC)c(OC)cc3CCN2C(=O)c2cccc(Cl)c2)cc1 (centres unmarked) [CIQ],"agonist-evoked response, % of control, GluN2C-expressing neurons",[1],145 ± 5.9%
same,"agonist-evoked response, % of control, neurons transfected with GFP alone",[2],98 ± 1.8%
